Here are results for 3 compounds from patent US4874773A, “3-Aminocarbonyl-1,4-dihydropyridine-5-carboxylic acid compounds, and pharmaceutical composition containing the same” (priority 1985, dated 1989).

Data set [1] is described as follows: Experiment 4-1 Acute toxicity. Conditions: rat, in vivo; oral, male rats, 5 week age, 7 days. An excerpt: Wistar male rats (5 week age, weighing 105-135 g) were used. The compounds of Example Nos. 2, 3 and 7 were each orally administered to the animals in the form of a suspension in 0.5% methyl cellulose solution.
The test system of a further data set is isolated aorta. Put plainly: Experiment 3 Relaxing activity on the isolated aorta (30 mM KCl contracted). Also noted: species or system Japanese white rabbit. The conditions noted are these: for EC50: Oryctolagus cuniculus, 30 mM KCl contraction, maximum relaxation by papaverine = 100%, read-out: EC50 (concentration for 50% relaxation); for relaxing / vasodilating activity on isolated aorta (in words): Table 8, comparison with nifedipine and nicardipine hydrochloride, etc. where stated.

Data set [2] deals with Spontaneously hypertensive male rats. As to the kind of experiment: Experiment 1-1 Hypotensive activity (oral, conscious spontaneously hypertensive rats). The format is in vivo, rat. Conditions: for Maximum hypotension: mean blood pressure.
Data set [3] has as its system isolated heart. Put plainly: Experiment 2-1 Activity on isolated heart. Also noted: species or system Japanese white rabbit. Conditions: for activation at 3 µg/heart / inhibition at 3 µg/heart, 3 µg/heart / inhibition at 3 µg/heart: Oryctolagus cuniculus, 3 μg/heart; for activation at 3 µg/heart: read-out: Increase of coronary perfusion; for inhibition at 3 µg/heart, 3 µg/heart: read-out: Inhibitory rate of systole; for inhibition at 3 µg/heart: read-out: Reducing rate of heart pulse. Summed up:
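Isolated heart preparation from Japanese white rabbits (2.2–2.5 kg) anaesthetised with nembutal 20 mg/kg i.v. Compound was given after 90 min of stabilisation. Perfusion volume was measured by drop counting, and heart rate and contractility via a force-displacement transducer.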

A short description of data set [4]: Experiment 4-2 Acute toxicity, rats. Conditions: rat, in vivo, po, 4 week age, 7 days. From the text:
(§1) Wistar male and female rats (4 week age) and ddy male and female mice (4 week age) were used. The compounds of Example Nos. 82 and 83 were each orally administered to […].

A short description of data set [5]: Experiment 4-2 Acute toxicity, mice. Conditions: mouse, in vivo, po, 4 week age, 7 days.
Description: as §1

For data set [6], the system named is Spontaneously hypertensive male rats. Put plainly: Experiment 1-2 Hypotensive activity (oral, 8 hours). The format is in vivo, rat. The procedure: Spontaneously hypertensive male rats (13-15 week age, one group: 3 rats) were used. […] The rats were fixed in a Howlman cage without fasting, and the femoral arterial pressure was measured by a direct method without anesthesia with a cannula which was previously inserted into the femoral artery of the animal, via a pressure transducer (MPU-0.5, manufactured by Nippon Koden K.K.). The test compounds were orally administered in the form of a suspension in 0.5% methyl cellulose solution in a dose of 10 mg/kg (in some compounds, 3 mg/kg). In the control group, only 0.5% methyl cellulose solution was administered likewise. The blood pressure was measured for 5 hours after the administration of test compounds.
The hypotensive activity was measured in the same manner as described in Experiment 1-1 except that the rats were used in 3-5 rats per each group, and the test compounds were administered in a dose of 1 mg/kg (some compounds, 3 mg/kg), and the blood pressure was measured for 8 hours after the administration of test compounds.

Data set [7] has as its system isolated heart. Put plainly: Experiment 2-2 Activity onto the isolated heart (with duration). Also noted: species or system Japanese white rabbit. The conditions noted are these: 3 μg/heart. On the procedure: Japanese white rabbit (weighing 2.2-2.5 kg) was anesthetized by introvenous injection of nembutal (20 mg/kg) and then sacrificed by bleeding from common carotid artery. […] There were measured the perfusion volume with a drop-counting meter (ET-600G type, manufactured by Nippon Koden K.K.) and the heart pulse and the contractility via a force-displacement transducer (FD pick up, SB-IT type, manufactured by Nippon Koden K.K.) (for measuring heart pulse, an instant pulse meter (AT-601G type, minufactured by Nippon Koden K.K.) being further used).
The test compounds were dissolved in ethanol, and the solution was diluted in 100-fold with purified water, and the diluted solution was administered in an amount of 0.1 ml/heart (i.e. 3 μg/heart).
The activity was measured in the same manner as described in Experiment 2-1 except that in some test compounds, the dose was in 1 μg/heart. Besides, the duration of the activity was evaluated by counting the time until the coronary perfusion volume became to the initial level before the administration of the test compound.

Entries after “also recorded” stand apart in the source; their conditions may differ. A value given as a limit tells only on which side of the number the result lay.

Description for isolated aorta: Japanese white rabbit (weighing 2.3-2.7 kg) was sacrificed by bleeding from common carotid artery. Immediately, the aorta was isolated and cut into a sprial strip. The strip preparation was vertically suspended under a resting tension of 2.0 g in a tissue bath containing 20 ml of modified Ringer solution while bubbling with a mixture of 95% O2 +5% CO2 by connecting one end of the strip to a lever of the above-mentioned FD pick up. The aortic strip was contracted with 30 mM KCl. When the contraction became constant, the test compound was accumulatively administered, and the relaxing effect was measured. After the final treatment, 10^-4T M papaverine was administered and the maximum relaxation obtained thereby was taken as 100%. In comparison with the maximum relaxation obtained by papaverine, the rate of relaxation by the test compounds was evaluated, and the concentration of the test compounds for obtaining 50% relaxation (EC50) was calculated.
The test compound was dissolved in ethanol, and the solution was diluted in 100 to 1×10^4 folds with a nutrient solution, and the diluted solution was administered.

By LD50 is commonly meant the dose expected to kill half of the subjects tested. Read a low LD50 as a more toxic substance. In data set [1], `CCCCCCCCCOC(=O)C1=C(C)NC(C)=C(C(=O)NC(C)C)C1c1ccccc1[N+](=O)[O-]` (centres unmarked) [Example 3, n-nonyl 2,6-dimethyl-3-isopropylaminocarbonyl-4-(o-nitrophenyl)-1,4-dihydropyridine-5-carboxylate] gave a 50% lethal dose (LD50) at 168 h of 500 to 1000 mg/kg. Besides, the EC50 in the data set with isolated aorta turned out to be 180 nM. Also, in data set [2] (3 mg/kg oral), the Recovering time was over 5.0 h, the “Time for recovering 1/2 of max. hypotension” value (“Time … of max. hypotension” for short) is over 5.0 h, the “Time until reaching to max. hypotension” value turned out to be 30 min and the Maximum hypotension was 60 mmHg. Further, in data set [2] (10 mg/kg oral), the Recovering time is over 5.0 h, the “Time … of max. hypotension” value is over 5.0 h, the “Time until reaching to max. hypotension” value came out at 30 min and the Maximum hypotension is 91 mmHg. For the same compound, in the data set with isolated heart [3], the activation at 3 µg/heart was found to be 40%; the inhibition at 3 µg/heart, 3 µg/heart stood at 55%; the inhibition at 3 µg/heart amounted to 20%.
For the compound `CCCCCCOC(=O)C1=C(C)NC(C)=C(C(=O)NC(C)C)C1c1ccccc1[N+](=O)[O-]` (centres unmarked) [Example 7, n-hexyl 2,6-dimethyl-3-isopropylaminocarbonyl-4-(o-nitrophenyl)-1,4-dihydropyridine-5-carboxylate], in data set [1], the 50% lethal dose (LD50) at 168 h is over 1000 mg/kg. Also, in the data set with isolated aorta, the EC50 worked out at 130 nM and the “relaxing / vasodilating activity on isolated aorta (in words)” value is “somewhat weak vasodilating activity”. Further, in data set [2] (10 mg/kg oral), the Recovering time was over 5.0 h, the “Time … of max. hypotension” value is 5.0 h, the “Time until reaching to max. hypotension” value turned out to be 30 min and the Maximum hypotension is recorded as 45 mmHg. In data set [2] (Table 4, comparison with nifedipine and nicardipine hydrochloride where stated), the “hypotensive activity (in words)” value is given as “the same or more potent activity with longer duration; also recorded: potent hypotensive activity”. Also, in the data set on isolated heart [3], the activation at 3 µg/heart was 45%; the inhibition at 3 µg/heart, 3 µg/heart turned out to be 30%; the inhibition at 3 µg/heart was 25%. Further, the “inhibitions on the heart pulse and contactility (in words)” value in the data set with isolated heart [3] (Table 6) was “moderate inhibitions on the heart pulse and contactility”. For the same compound, the “coronary vasodilating activity (in words)” value in the data set with isolated heart [3] (Table 6, comparison with nifedipine and nicardipine hydrochloride, etc.) is recorded as “the same or more potent coronary vasodilating activity with longer duration”.
In data set [4] (female rats), `CCCCCCCCOC(=O)C1=C(C)NC(C)=C(C(=O)NC2CC2)C1c1ccccc1[N+](=O)[O-]` (centres unmarked) [Example 82, n-octyl 2,6-dimethyl-3-cyclopropylaminocarbonyl-4-(o-nitrophenyl)-1,4-dihydropyridine-5-carboxylate] yielded an LD50 at 168 h of 50 mg/kg. The compound further had a median lethal dose (LD50) at 168 h in data set [4] (male rats) of 320 mg/kg. In addition, in the data set with isolated aorta, the EC50 stood at 440 nM and the “relaxing / vasodilating activity on isolated aorta (in words)” value is recorded as “somewhat weak vasodilating activity”. In data set [5] (female mice), this compound came in with a 50% lethal dose (LD50) at 168 h of 1140 mg/kg. Moreover, in data set [5] (male mice), the LD50 at 168 h worked out at 1280 mg/kg. Also, in data set [6] (1 mg/kg oral), the Maximum hypotension is 48 mmHg, the Recovering time was over 8.0 h, the “Time … of max. hypotension” value is over 8.0 h and the “Time until reaching to max. hypotension” value was found to be 180 min. Besides, the “hypotensive activity (in words)” value in data set [6] (Table 5, comparison with nifedipine and nicardipine hydrochloride where stated) is on record as “the same or more potent hypotensive activity with longer duration; also recorded: potent hypotensive activity”. In the data set on isolated heart [7] (time until perfusion volume returned to initial level), the “Coronary perfusion Duration” value is over 120 min. Also, the activation at 3 µg/heart in the data set on isolated heart [7] (Oryctolagus cuniculus, read-out: Coronary perfusion Increase) was 39%. Besides, in the data set on isolated heart [7] (Oryctolagus cuniculus, read-out: Inhibitory rate of systole), the inhibition at 3 µg/heart was 30%. The inhibition at 3 µg/heart in the data set with isolated heart [7] (Oryctolagus cuniculus, read-out: Reducing rate of heart pulse) stood at 25%.
